Results from ChEMBL document CHEMBL1641396, “4-Oxo-1,4-dihydropyridines as selective CB2 cannabinoid receptor ligands: structural insights into the design of a novel inverse agonist series” (J Med Chem, 2010).

Tests used:
[1] = target: Cannabinoid receptor 1 (Homo sapiens, UniProt P21554); assay: Displacement of [3H]-SR141716A from human CB1 receptor expressed in CHO cells after 1 hr; format: cell-based
[2] = target: T1, Cannabinoid receptor 2 (Homo sapiens, UniProt P34972); assay: Agonist activity at human CB2 receptor expressed in CHO cells assessed as stimulation of [35S]-GTPgammaS binding relative to basal activity; format: functional, cell-based
T1 sequence (P34972 whole entry): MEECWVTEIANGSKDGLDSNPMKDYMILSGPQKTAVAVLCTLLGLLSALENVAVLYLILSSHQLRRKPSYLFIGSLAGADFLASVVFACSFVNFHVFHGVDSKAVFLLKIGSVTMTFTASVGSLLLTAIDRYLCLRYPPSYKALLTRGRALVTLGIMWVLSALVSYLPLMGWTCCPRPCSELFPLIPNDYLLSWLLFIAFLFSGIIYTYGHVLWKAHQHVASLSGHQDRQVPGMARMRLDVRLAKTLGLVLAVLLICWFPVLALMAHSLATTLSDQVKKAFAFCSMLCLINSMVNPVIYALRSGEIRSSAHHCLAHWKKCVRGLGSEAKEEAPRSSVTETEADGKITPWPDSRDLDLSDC

[3] = target: T1, Cannabinoid receptor 2; assay: Displacement of [3H]-CP55940 from human CB2 receptor expressed in CHO cells after 1 hr; format: cell-based
[4] = target: T1, Cannabinoid receptor 2; assay: Agonist activity at human CB2 receptor expressed in CHO cells assessed as stimulation of [35S]-GTPgammaS binding; format: functional, cell-based

Chain of Cannabinoid receptor 1 (P21554 whole entry): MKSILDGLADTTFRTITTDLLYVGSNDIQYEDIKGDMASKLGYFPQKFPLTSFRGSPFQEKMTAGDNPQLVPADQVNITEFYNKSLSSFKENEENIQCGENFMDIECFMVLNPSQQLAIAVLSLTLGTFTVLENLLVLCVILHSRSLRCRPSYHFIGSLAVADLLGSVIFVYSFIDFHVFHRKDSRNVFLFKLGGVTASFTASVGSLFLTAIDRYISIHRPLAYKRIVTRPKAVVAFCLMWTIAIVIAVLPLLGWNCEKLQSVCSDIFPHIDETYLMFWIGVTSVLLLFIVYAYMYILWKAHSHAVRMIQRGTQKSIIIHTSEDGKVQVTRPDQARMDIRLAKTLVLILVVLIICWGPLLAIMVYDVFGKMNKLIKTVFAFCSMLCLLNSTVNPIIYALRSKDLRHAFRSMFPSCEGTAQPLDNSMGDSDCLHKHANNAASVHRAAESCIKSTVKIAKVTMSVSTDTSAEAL

`CCCCCn1cc(C(=O)NC2CCCCC2)c(=O)cc1-c1ccccc1` was tested, and the Ki [1] was 929 nM and the Emax [2] was 62%.
With `CCCCCn1cc(C(=O)NN2CCCCC2)c(=O)cc1-c1ccccc1` the Ki [1] was > 3000 nM and the Emax [2] was 48%.
For `CCCCCn1cc(C(=O)N[C@@H]2CCCc3ccccc32)c(=O)cc1-c1ccccc1`, the Ki [1] was 131 nM and the Emax [2] was 42%.
With `CCCCn1cc(C(=O)NC23CC4CC(CC(C4)C2)C3)c(=O)cc1-c1ccccc1` the Ki [1] was > 1000 nM.
For `CC(NC(=O)c1cn(-c2ccccc2)c(-c2ccccc2)cc1=O)C12CC3CC(CC(C3)C1)C2` (racemic), the Ki [1] was > 3000 nM and the Ki [3] was > 3000 nM.
`CCCCCn1cc(C(=O)NC23CC4CC(CC(C4)C2)C3)c(=O)cc1C` was tested, and the Ki [1] was > 3000 nM and the Emax [2] was 148%.
`CCCCCn1cc(C(=O)NC23CC4CC(CC(C4)C2)C3)c(=O)cc1-c1cccc(Cl)c1` showed a Ki [1] of 51.2 nM and a Ki [3] of 1.8 nM.
`CCCCCn1cc(C(=O)NC2CCCCC2)c(=O)cc1-c1ccc(Cl)cc1` was tested, and the Ki [1] was > 1000 nM and the Emax [2] was 39%.
`CCCCCn1cc(C(=O)NC23CC4CC(CC(C4)C2)C3)c(=O)cc1-c1ccc(Cl)cc1` was tested, and the Ki [1] was > 1000 nM.
With `CCCCCn1cc(C(=O)Nc2cccc(C(F)(F)F)c2)c(=O)cc1-c1ccc(Cl)cc1` the Ki [1] was > 1000 nM, the Ki [3] was > 1000 nM and the Emax [2] was 42%. It also gave an EC50 [4] of 158 nM.
In the case of `CCCCCCC(C)(C)c1ccc([C@@H]2C[C@H](O)CC[C@H]2CCCO)c(O)c1`, the Emax [2] is reported as 230%.
In the case of `CCCCCn1cc(C(=O)NC(C)C23CC4CC(CC(C4)C2)C3)c(=O)cc1-c1ccccc1` (racemic), the Ki [1] is reported as 368 nM and the Emax [2] is reported as 46%.
In the case of `CCCCCn1cc(NC(=O)C2CCCCC2)c(=O)cc1-c1ccccc1`, the Ki [1] is reported as > 3000 nM, the Ki [3] is reported as 51 nM and the Emax [2] is reported as 43%. It also gave an EC50 [4] of 25 nM.
`CCCCCn1cc(C(=O)NC23CC4CC(CC(C4)C2)C3)c(=O)cc1-c1ccc(C)cc1` was tested, and the Ki [1] was 134 nM and the Ki [3] was 13.2 nM.
In the case of `CCCCCn1cc(NC(=O)OC(C)(C)C)c(=O)cc1-c1ccccc1`, the Ki [1] is reported as > 3000 nM, the Ki [3] is reported as 209 nM and the Emax [2] is reported as 26%. It also gave an EC50 [4] of 164 nM.
`CCn1cc(C(=O)NC(C)C23CC4CC(CC(C4)C2)C3)c(=O)cc1-c1ccccc1` (racemic) was tested, and the Ki [1] was > 3000 nM.
For `CCCCCn1cc(C(=O)NC23CC4CC(CC(C4)C2)C3)c(=O)cc1C(C)(C)C`, the Ki [1] was > 3000 nM and the Emax [2] was 212%.
For `CCCCCn1cc(C(=O)NC23CC4CC(CC(C4)C2)C3)c(=O)cc1-c1ccccc1Cl`, the Ki [1] was 34.4 nM and the Ki [3] was 0.7 nM.
For `CCCCCn1cc(C(=O)N[C@H]2CCCc3ccccc32)c(=O)cc1-c1ccccc1`, the Ki [1] was > 1000 nM and the Emax [2] was 48%.
With `CCCCCn1cc(C(=O)NC2CCCCC2)c(=S)cc1-c1ccccc1` the Ki [1] was > 1000 nM, the Ki [3] was 48 nM and the Emax [2] was 45%. The EC50 [4] was 27 nM.
`CCCCCn1cc(C(=O)NC23CC4CC(CC(C4)C2)C3)c(=O)cc1-c1ccc(OC)cc1` gave a Ki [1] of 384 nM and a Ki [3] of 91.1 nM.
Molecule `CCCCCn1cc(C(=O)NC23CC4CC(CC(C4)C2)C3)c(=O)cc1-c1ccccc1` has a Ki [1] of 592 nM.
In the case of `Cc1c(C(=O)c2cccc3ccccc23)c2cccc3c2n1[C@H](CN1CCOCC1)CO3`, the Emax [2] is reported as 207%.
In the case of `CCCCCn1cc(C(=O)NC2CCCCC2)c(=O)cc1C(C)(C)C`, the Ki [1] is reported as > 3000 nM.
`CCCC(C)(C)c1ccc2c(c1)OC(C)(C)[C@@H]1CC=C(O)C[C@@H]21` gave a Ki [3] of 20.3 nM, an Emax [2] of 201% and an EC50 [4] of 146 nM.
In the case of `CCCCCn1cc(C(=O)Nc2cccc(C(F)(F)F)c2)c(=O)cc1-c1ccccc1`, the Ki [1] is reported as > 3000 nM, the Ki [3] is reported as 25.8 nM and the Emax [2] is reported as 42%. For the same molecule, the EC50 [4] was 14 nM.
For `CCCCCn1cc(C(=O)NC23CC4CC(CC(C4)C2)C3)c(=S)cc1-c1ccccc1`, the Ki [1] was > 1000 nM, the Ki [3] was 18.8 nM and the Emax [2] was 30%. It also gave an EC50 [4] of 17 nM.
`CCCCCCn1cc(C(=O)NC23CC4CC(CC(C4)C2)C3)c(=O)cc1-c1ccccc1` showed a Ki [1] of 596 nM.
With `CCCCCn1cc(C(=O)NCC23CC4CC(CC(C4)C2)C3)c(=O)cc1-c1ccccc1` the Ki [1] was 626 nM.
